Experimental data: US8058455B2, “Compound signamycin, method for production thereof, and use thereof” (priority 2008, dated 2011)
pIC50: −log10 of the molar value. Values after ≈ are worked out from the molar mass of the structure shown.

Key:
[1] = target: VicK of caries bacteria (VicK-31-450) (Streptococcus mutans, UniProt Q8DT64); test: VicK histidine kinase activity inhibitory test; format: biochemical; conditions: VicK-31-450, [32P]ATP, 25° C.
Method: Signamycin A and signamycin B were measured for enzyme inhibitory activity against VicK of caries bacteria (Streptococcus mutans).
The histidine kinase activity was measured by a modified method of the method reported in Biosci. Biotechnol. Biochem., 64, 919-923, 2000.
A DNA fragment encoding a region containing only the kinase activity domain of VicK (i.e., a region containing the 31th amino acid to the 450th amino acid from the N-terminus) was prepared through PCR from the chromosomal DNA of the caries bacteria, and was cloned into the expression vector pET21a (+). The thus-obtained plasmid pET-SMvicK31-450 was used to transform Escherichia coli cells. The culture liquid of the thus-transformed strain was treated to purify a protein expressing only the histidine kinase activity domain of VicK (VicK-31-450).
The reaction solution having the following formulation was used for measuring histidine kinase activity: […] VicK-31-450, 50 mM Tris-HCl (pH 7.5), 50 mM KCl and 10 mM MgCl2. Signamycin A or signamycin B (1 μL) was added to the reaction solution (7 μl), followed by incubating at 25° C. for 5 min. Subsequently, 2 μL of 12.5 µM ATP containing [^32P]ATP was added to the reaction mixture (final concentration: […]) to initiate the reaction, followed by incubating at 25° C. for 20 min. […]

[2] = target: T1, YycG of Bacillus subtilis 168 strain (YycG-204-611) (Bacillus subtilis, UniProt Q45614); test: YycG histidine kinase activity inhibitory test; format: biochemical; conditions: YycG-204-611, [γ-32P]ATP, 30° C.
T1 construct: a region containing the 204th amino acid to the 611th amino acid from the N-terminus; made in house; host or cells: Escherichia coli
T1 sequence (Q45614 204-611): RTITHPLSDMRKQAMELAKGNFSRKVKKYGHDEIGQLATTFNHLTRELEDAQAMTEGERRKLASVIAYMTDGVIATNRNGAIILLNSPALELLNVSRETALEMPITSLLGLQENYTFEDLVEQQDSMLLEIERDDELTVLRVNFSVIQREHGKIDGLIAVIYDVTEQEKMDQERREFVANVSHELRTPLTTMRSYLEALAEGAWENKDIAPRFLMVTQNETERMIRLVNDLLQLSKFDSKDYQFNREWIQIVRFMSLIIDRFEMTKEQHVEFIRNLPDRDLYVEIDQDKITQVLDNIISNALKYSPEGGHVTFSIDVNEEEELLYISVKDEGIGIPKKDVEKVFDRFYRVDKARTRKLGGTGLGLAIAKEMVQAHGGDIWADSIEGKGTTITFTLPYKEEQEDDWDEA
Method: Signamycin A and signamycin B were measured for enzyme inhibitory activity against YycG of Bacillus subtilis 168 strain (B. subtilis 168).
(§1) The histidine kinase activity was measured according to the method reported in Biosci. Biotechnol. Biochem., 64, 919-923, 2000.
A DNA fragment encoding a region containing only the kinase activity domain of […] (i.e., a region containing the 204th amino acid to the 611th amino acid from the N-terminus) was prepared through PCR from the chromosomal DNA of the Bacillus subtilis 168 strain, and was cloned into the expression vector pET21a (+). The thus-obtained plasmid pET-yycGtru was used to transform Escherichia coli cells. The culture liquid of the thus-transformed strain was treated to purify a protein expressing only the histidine kinase activity domain of YycG (YycG-204-611).
The reaction solution having the following formulation was used for measuring histidine kinase activity: 0.5 μM YycG-204-611, 50 mM Tris-HCl (pH 8.5), 100 mM KCl, 100 mM NH4Cl and 5 mM MgCl2. A 2.5 μM ATP-10 μCi [γ-^32P]ATP mixture was added to the reaction solution to initiate the reaction so that the total amount was adjusted to 10 μL. The resultant mixture was incubated at 30° C. for 10 min. After termination of the reaction, SDS-polyacrylamide gel electrophoresis was performed. […]

[3] = system: Staphylococcus aureus (S. aureus); test: Antimicrobial activity, summary in words for the species; format: cell-based; conditions: summary of Table 1
Method: (§2) According to the standard method of Japanese Society of Chemotherapy, signamycin A and signamycin B were measured for antimicrobial spectrum against various microorganisms including drug-resistant bacteria (methicilline resistant bacteria and vancomycin resistant bacteria) on the Muller Hinton agar medium by the multiple dilution method.

[4] = system: E. faecalis NCTC 12201 (VRE, vanA); test: Antimicrobial activity (MIC), agar multiple dilution method; format: cell-based; conditions: Enterococcus faecalis, 18 h
Method: as §2

[5] = system: Corynebacterium bovis 1810; test: as above; format: cell-based; conditions: Muller Hinton agar, 37° C., 18 hrs.
Method: as §2

[6] = system: Bacillus subtilis NRRL B-558; test: as above; format: cell-based; conditions: NRRLB558, Muller Hinton agar, 37° C., 18 hrs.
Method: as §2

[7] = system: S. aureus TY-04282 (MRSA); test: as above; format: cell-based; conditions: Staphylococcus aureus, 18 h
Method: as §2

B. subtilis PCI 219 = test: as above; format: cell-based; conditions: Bacillus subtilis, PCI219, Muller Hinton agar, 37° C., 18 hrs.
Method: as §2

S. aureus MS16526 (MRSA) = test: as above; format: cell-based; conditions: Staphylococcus aureus, 18 h
Method: as §2

[8] = system: S. aureus MRSA No. 17 (MRSA); test: as above; format: cell-based; conditions: Staphylococcus aureus, 18 h
Method: as §2

[9] = system: E. faecalis NCTC 12203 (VRE, vanA); test: as above; format: cell-based; conditions: Enterococcus faecalis, 18 h
Method: as §2

[10] = system: Pseudomonasu aeruginosa A3; test: as above; format: cell-based; conditions: 18 h
Method: as §2

[11] = system: S. aureus MRSA No. 5 (MRSA); test: as above; format: cell-based; conditions: Staphylococcus aureus, 18 h
Method: as §2

[12] = system: Enterococcus faecalis JCM 5803; test: as above; format: cell-based; conditions: JCM5803, Muller Hinton agar, 37° C., 18 hrs.
Method: as §2

[13] = system: Staphylococcus aureus FDA 209P; test: as above; format: cell-based; conditions: FDA209P, Muller Hinton agar, 37° C., 18 hrs.
Method: as §2

M. luteus PCI 1001 = test: as above; format: cell-based; conditions: Micrococcus luteus, PCI1001, Muller Hinton agar, 37° C., 18 hrs.
Method: as §2

S. aureus Smith = test: as above; format: cell-based; conditions: Staphylococcus aureus, Muller Hinton agar, 37° C., 18 hrs.
Method: as §2

[14] = system: Mycobacterium smegmatis ATCC607; test: as above; format: cell-based; conditions: Mycolicibacterium smegmatis, Muller Hinton agar, 37° C. 42 hrs.
Method: as §2

B. cereus ATCC 10702 = test: as above; format: cell-based; conditions: Bacillus cereus, ATCC10702, Muller Hinton agar, 37° C., 18 hrs.
Method: as §2

E. faecium JCM 5804 = test: as above; format: cell-based; conditions: Enterococcus faecium, JCM5804, Muller Hinton agar, 37° C., 18 hrs.
Method: as §2

Escherichia coli NIHJ = test: as above; format: cell-based; conditions: Muller Hinton agar, 37° C., 18 hrs.
Method: as §2

[15] = system: Micrococcus luteus FDA 16; test: as above; format: cell-based; conditions: FDA16, Muller Hinton agar, 37° C., 18 hrs.
Method: as §2

[16] = system: E. faecium NCTC 12202 (VRE, vanA); test: as above; format: cell-based; conditions: Enterococcus faecium, 18 h
Method: as §2

M. luteus IFO 3333 = test: as above; format: cell-based; conditions: Micrococcus luteus, IFO3333, Muller Hinton agar, 37° C., 18 hrs.
Method: as §2

[17] = system: E. faecium NTCTC 12204 (VRE, vanA); test: as above; format: cell-based; conditions: Enterococcus faecium, 18 h
Method: as §2

S. aureus MS9610 (MDR) = test: as above; format: cell-based; conditions: Staphylococcus aureus, 18 h
Method: as §2

[18] = target: PehS of soft-rot bacteria MAFF301393 strain (PehS-209-484) (Pectobacterium carotovorum subsp. carotovorum, UniProt Q9ZIN8); test: PehS histidine kinase activity inhibitory test; format: biochemical, Erwinia carotovora subsp. carotovora MAFF301393; conditions: for inhibitory activity against PehS (in words): summary of Table 2
PehS of soft-rot bacteria MAFF301393 strain (PehS-209-484), sequence (Q9ZIN8 entry or part of it): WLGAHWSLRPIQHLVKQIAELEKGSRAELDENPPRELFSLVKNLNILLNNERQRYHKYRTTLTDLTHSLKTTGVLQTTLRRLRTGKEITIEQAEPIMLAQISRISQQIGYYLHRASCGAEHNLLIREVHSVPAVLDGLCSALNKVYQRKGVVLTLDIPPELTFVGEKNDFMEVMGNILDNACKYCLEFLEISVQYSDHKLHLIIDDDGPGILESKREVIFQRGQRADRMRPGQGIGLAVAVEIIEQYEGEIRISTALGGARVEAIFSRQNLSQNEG
Method: Signamycin A and signamycin B were measured for enzyme inhibitory activity against PehS of soft-rot bacteria MAFF301393 strain (Erwinia carotovora subsp. carotovora MAFF301393).
as §1
A DNA fragment encoding a region containing only the kinase activity domain of […] (i.e., a region containing the 209th amino acid to the 484th amino acid from the N-terminus) was prepared through PCR from the chromosomal DNA of the soft-rot bacteria MAFF301393 strain, and was cloned into the expression vector pET21a (+). The thus-obtained plasmid pET-pehScM2-2 was used to transform Escherichia coli cells. The culture liquid of the thus-transformed strain was treated to purify a protein expressing only the histidine kinase activity domain of PehS (PehS-209-484).
The reaction solution having the following formulation was used for measuring histidine kinase activity: 4 μM PehS-209-484, 50 mM Tris-HCl (pH 8.5), 100 mM KCl, 100 mM NH4Cl and 5 mM MgCl2. A 2.5 μM ATP-10 μCi [γ-^32P] ATP mixture was added to the reaction solution to initiate the reaction so that the total amount was adjusted to 10 μL. The resultant mixture was incubated at 30° C. for 20 min. After termination of the reaction, SDS-polyacrylamide gel electrophoresis was performed. For measuring inhibitory activity, signamycin A or signamycin B was added to the reaction solution before the addition of the ATP mixture so as to have a predetermined concentration, followed by incubating at 30° C. for 5 min, to thereby determine the 50% inhibitory concentration (IC50) with respect to PehS of soft-rot bacteria.

[19] = system: Enterococcus (E. faecalis and E. faecium); test: Antimicrobial activity, summary in words for the genus; format: cell-based; conditions: summary of Table 1
Method: as §2

VicK of caries bacteria (VicK-31-450), sequence (Q8DT64 entry or part of it): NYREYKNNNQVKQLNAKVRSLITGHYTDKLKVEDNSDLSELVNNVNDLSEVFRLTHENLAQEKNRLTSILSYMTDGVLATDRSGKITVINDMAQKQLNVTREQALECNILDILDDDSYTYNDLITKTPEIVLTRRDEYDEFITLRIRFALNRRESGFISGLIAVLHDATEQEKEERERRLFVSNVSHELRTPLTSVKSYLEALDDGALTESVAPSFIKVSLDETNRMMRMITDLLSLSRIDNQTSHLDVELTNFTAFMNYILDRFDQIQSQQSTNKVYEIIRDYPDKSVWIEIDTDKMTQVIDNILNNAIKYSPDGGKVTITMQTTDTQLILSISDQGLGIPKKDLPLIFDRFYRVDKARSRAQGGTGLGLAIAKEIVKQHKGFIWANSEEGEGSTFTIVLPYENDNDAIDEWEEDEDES

| Structure (SMILES) | pIC50 [1] | pIC50 [2] | antimicrobial activity against Staphylococcus aureus (in words) [3] | MIC [4] [µg/mL] | MIC [5] [µg/mL] | MIC [6] [µg/mL] | MIC [7] [µg/mL] | MIC (B. subtilis PCI 219) [µg/mL] | MIC (S. aureus MS16526 (MRSA)) [µg/mL] | MIC [8] [µg/mL] | MIC [9] [µg/mL] | MIC [10] [µg/mL] | MIC [11] [µg/mL] | MIC [12] [µg/mL] | MIC [13] [µg/mL] | MIC (M. luteus PCI 1001) [µg/mL] | MIC (S. aureus Smith) [µg/mL] | MIC [14] [µg/mL] | MIC (B. cereus ATCC 10702) [µg/mL] | MIC (E. faecium JCM 5804) [µg/mL] | also measured |
| --- | --- | --- | --- | --- | --- | --- | --- | --- | --- | --- | --- | --- | --- | --- | --- | --- | --- | --- | --- | --- | --- |
| CCC1C(C)=CC2CC(C)C(O)C(CC)C2C1/C(O)=C1/C(=O)NC(C)C1=O (stereo not drawn) [Signamycin A, signamycin A] | 3.62 | 3.86 | high antimicrobial activity | 16 (≈ 42.6 µM) | 8 (≈ 21.3 µM) | 4 (≈ 10.7 µM) | 8 (≈ 21.3 µM) | 4 (≈ 10.7 µM) | 8 (≈ 21.3 µM) | 8 (≈ 21.3 µM) | 8 (≈ 21.3 µM) | > 100 | 8 (≈ 21.3 µM) | 16 (≈ 42.6 µM) | 4 (≈ 10.7 µM) | 8 (≈ 21.3 µM) | 8 (≈ 21.3 µM) | 32 (≈ 85.2 µM) | 4 (≈ 10.7 µM) | 8 (≈ 21.3 µM) | MIC (Escherichia coli NIHJ): 32 µg/mL (≈ 85.2 µM); MIC [15]: 8 µg/mL (≈ 21.3 µM); MIC [16]: 16 µg/mL (≈ 42.6 µM); MIC (M. luteus IFO 3333): 8 µg/mL (≈ 21.3 µM); MIC [17]: 8 µg/mL (≈ 21.3 µM); MIC (S. aureus MS9610 (MDR)): 8 µg/mL (≈ 21.3 µM); pIC50 [18]: 4.47; inhibitory activity against PehS (in words) [18]: strong inhibitory activity |
| CCCC1C(C)=CC2CC(C)C(O)C(CC)C2C1/C(O)=C1/C(=O)NC(C)C1=O (stereo not drawn) [Signamycin B, signamycin B] | 4.21 | 4.37 | high antimicrobial activity | 8 (≈ 20.5 µM) | 8 (≈ 20.5 µM) | 4 (≈ 10.3 µM) | 4 (≈ 10.3 µM) | 4 (≈ 10.3 µM) | 4 (≈ 10.3 µM) | 4 (≈ 10.3 µM) | 8 (≈ 20.5 µM) | > 100 | 4 (≈ 10.3 µM) | 8 (≈ 20.5 µM) | 4 (≈ 10.3 µM) | 4 (≈ 10.3 µM) | 4 (≈ 10.3 µM) | 64 (≈ 164 µM) | 2 (≈ 5.13 µM) | 8 (≈ 20.5 µM) | antimicrobial activity against Enterococcus (in words) [19]: high antimicrobial activity; MIC (Escherichia coli NIHJ): 64 µg/mL (≈ 164 µM); MIC [15]: 4 µg/mL (≈ 10.3 µM); MIC [16]: 8 µg/mL (≈ 20.5 µM); MIC (M. luteus IFO 3333): 4 µg/mL (≈ 10.3 µM); MIC [17]: 8 µg/mL (≈ 20.5 µM); MIC (S. aureus MS9610 (MDR)): 4 µg/mL (≈ 10.3 µM); pIC50 [18]: 4.80; inhibitory activity against PehS (in words) [18]: strong inhibitory activity |
